Test results as given in US20080182842A1, “L-alanine derivatives as a5beta1 antagonists” (ASTRAZENECA AB, priority 2007, published 2008).
pIC50: −log10 of the molar value.

Target: α5β1 integrin (Homo sapiens, UniProt P05556+P08648)
Test: In vitro binding assay (a): inhibition of binding of α5β1 integrin to fibronectin fragment Fn9-10 (Origen electrochemiluminescence)
Settings: recombinant human α5β1 vs Fn9-10 ligand; geometric mean where tested more than once
Description: (a) In Vitro Binding Assay
The assay determined the ability of compounds to inhibit binding of α5β1 integrin to a cognate ligand, a fragment of human fibronectin. The assay used Origen technology (IGEN International) to measure the compound activity. Briefly, α5β1 integrin was coated onto epoxy-paramagnetic beads (Dynal Biotech UK, Bromborough, Wirral, CH62 3QL, UK, Catalogue No 140.11) and biotinylated-fibronectin ligand was coupled to strepatividin labeled Tag-NHS-Ester (BioVeris Corporation, Witney, Oxfordshire, OX28 4GE, UK, Catalogue No 110034). The ruthenium-labeled tag emits an electrochemiluminescence signal upon stimulation which is detected by the Origen reader. Thus, interaction of integrin and ligand causes association of bead and tag, and the resulting electrochemiluminescence signal reflects the level of integrin interaction with fibronectin.
20 μg of recombinant human α5β1 was coated onto 4×10(7) epoxy-paramagnetic beads according to manufacturers instructions at 4° C. for 24 hours. Integrin coating and corresponding activity was subsequently measured for each batch but typically, 25 ng of coated protein was used per assay well.
A DNA fragment encoding the domains 9-10 (amino-acids 1325-1509) of human fibronectin (Swiss-Prot Accession No. P02751) was isolated from cDNA libraries using standard molecular biology and PCR cloning techniques. The cDNA fragment was sub-cloned into a pT73.3 expression vector containing a GST-epitope tag (developed at AstraZeneca; Bagnall et al., Protein Expression and Purification, 2003, 27: 1-11). Following expression in E. coli, the expressed protein, termed Fn9-10, was purified using the GST-tag using standard purification techniques. The recombinant Fn9-10 was subsequently biotinylated using a EZ-link Sulfo-NHS-LC-Biotinylation kit (Perbio Science UK Ltd., Cramlington, Northumberland, NE23 1WA, UK, Catalogue No. 21335) and made to give a final concentration of approximately 1 mg/ml. Tag-NHS-Ester was labeled with streptavidin by incubation at room temperature following manufacturers instructions and buffer-exchanged into PBS to give a concentration of 0.5 mg/ ml. Immediately prior to the assay, biotinylated-Fn9-10 and Streptavidin-labeled Tag were diluted in Assay Buffer to give a final concentrations of 0.6 ug/ml and 1.5 ug/ml respectively. The Fn9-10 and Tag solutions were then mixed together in equal volumes and incubated on ice for at least 30 minutes prior to the assay.
Test compounds were prepared as 10 mM stock solutions in DMSO (Sigma-Aldrich Company Ltd, Gillingham, Dorset SP8 4XT Catalogue No. 154938) and serially diluted with 4% DMSO to give a range of test concentrations at ×4 required final concentration. Aliquots (20 μl) of each compound dilution were placed into each well of a 384-well round bottomed polypropylene plate (Matrix Technologies, Wilmslow, Cheshire, SK9 3LP, Catalogue No. 4340 384). Each plate also contained control wells: maximum signal was created using wells containing 20 μl of 4% DMSO, and minimum signal corresponding to no binding was created using wells containing 20 μl of 80 mM EDTA (Sigma Catalogue No. E7889).
For the assay, 25 ng(20 ul) of a5b1-bead suspension and 40 μl of the Fn9-10/Tag pre-incubated solution were added to each well containing 20 μl of compound or control solution. Assay plates were then incubated at room temperature for a minimum of 6 hours before being analysed on an Origen plate reader. The minimum value was subtracted from all values, and the signal was plotted against compound concentration to generate IC50 data.
The data in the above table was generated in an assay substantially as described above in relation to Binding Assay (a). Some of the compounds shown in the table were tested more than once in the assay. For those compounds the IC50 value shown is the geometric mean of the measured IC50 values. […]

Sequence of α5β1 integrin (P08648 42-894 limits assumed): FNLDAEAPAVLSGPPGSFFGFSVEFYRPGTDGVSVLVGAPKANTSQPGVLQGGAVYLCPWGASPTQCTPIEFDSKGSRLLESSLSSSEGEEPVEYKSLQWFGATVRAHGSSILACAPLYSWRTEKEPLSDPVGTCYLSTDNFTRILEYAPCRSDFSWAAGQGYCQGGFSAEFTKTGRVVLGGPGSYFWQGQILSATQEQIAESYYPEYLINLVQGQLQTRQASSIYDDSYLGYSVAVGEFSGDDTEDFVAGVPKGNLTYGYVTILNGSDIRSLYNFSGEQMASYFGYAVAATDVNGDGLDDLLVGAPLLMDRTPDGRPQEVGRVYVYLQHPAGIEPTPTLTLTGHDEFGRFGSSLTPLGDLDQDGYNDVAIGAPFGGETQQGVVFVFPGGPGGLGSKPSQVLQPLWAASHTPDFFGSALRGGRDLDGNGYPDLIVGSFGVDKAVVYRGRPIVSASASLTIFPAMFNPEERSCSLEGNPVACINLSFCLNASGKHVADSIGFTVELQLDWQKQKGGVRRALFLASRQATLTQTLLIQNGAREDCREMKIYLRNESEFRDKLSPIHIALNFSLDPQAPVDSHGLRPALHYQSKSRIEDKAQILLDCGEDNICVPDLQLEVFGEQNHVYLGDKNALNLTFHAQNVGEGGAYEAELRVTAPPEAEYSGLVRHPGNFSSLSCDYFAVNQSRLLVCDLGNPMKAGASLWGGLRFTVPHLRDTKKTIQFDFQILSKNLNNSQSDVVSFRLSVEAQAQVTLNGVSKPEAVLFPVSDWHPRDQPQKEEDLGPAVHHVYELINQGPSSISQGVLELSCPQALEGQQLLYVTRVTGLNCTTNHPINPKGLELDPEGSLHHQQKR
Sequence of α5β1 integrin (P08648 895-1049 partner limits assumed): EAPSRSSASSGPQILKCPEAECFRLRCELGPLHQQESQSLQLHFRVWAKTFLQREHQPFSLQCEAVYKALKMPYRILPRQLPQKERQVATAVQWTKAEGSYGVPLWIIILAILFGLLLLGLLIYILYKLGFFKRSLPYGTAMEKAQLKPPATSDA
Sequence of α5β1 integrin (P05556 21-798): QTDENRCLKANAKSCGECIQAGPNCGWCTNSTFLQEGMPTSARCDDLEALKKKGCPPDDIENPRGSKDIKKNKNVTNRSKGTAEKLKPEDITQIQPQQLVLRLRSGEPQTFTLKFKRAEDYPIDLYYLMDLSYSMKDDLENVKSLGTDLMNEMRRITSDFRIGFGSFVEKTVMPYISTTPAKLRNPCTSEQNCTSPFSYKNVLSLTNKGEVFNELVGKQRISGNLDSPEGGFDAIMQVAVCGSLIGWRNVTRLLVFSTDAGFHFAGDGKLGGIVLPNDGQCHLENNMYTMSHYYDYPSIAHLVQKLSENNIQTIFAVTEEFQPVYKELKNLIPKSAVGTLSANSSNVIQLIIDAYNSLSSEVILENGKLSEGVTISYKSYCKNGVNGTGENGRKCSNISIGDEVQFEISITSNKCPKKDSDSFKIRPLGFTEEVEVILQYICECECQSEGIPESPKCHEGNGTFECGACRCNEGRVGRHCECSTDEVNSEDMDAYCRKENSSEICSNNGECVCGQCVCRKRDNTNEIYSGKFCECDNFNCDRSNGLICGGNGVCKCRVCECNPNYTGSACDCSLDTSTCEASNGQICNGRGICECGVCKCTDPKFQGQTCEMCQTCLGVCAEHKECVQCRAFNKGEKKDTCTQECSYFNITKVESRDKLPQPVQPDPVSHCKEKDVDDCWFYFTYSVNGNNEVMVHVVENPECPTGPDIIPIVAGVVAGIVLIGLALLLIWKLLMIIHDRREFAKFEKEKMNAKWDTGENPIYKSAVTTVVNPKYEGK

pIC50 | Compound
8.30 | COC1(C(=O)N[C@@H](Cc2ccc(OCCc3ccc4c(n3)NCCO4)cc2)C(=O)O)CCOCC1 [Example 5.3, O-[2-(3,4-dihydro-2H-pyrido[3,2-b][1,4]oxazin-6-yl)ethyl]-N-[(4-methoxytetrahydro-2H-pyran-4-yl)carbonyl]-L-tyrosine]
8.05 | CNc1cccc(CCOc2ccc(C[C@H](NC(=O)C3CCCC3)C(=O)O)cc2)n1 [Example 1.16, N-(cyclopentylcarbonyl)-O-{2-[6-(methylamino)pyridin-2-yl]ethyl}-L-tyrosine]
7.49 | CNc1cccc(CCOc2ccc(C[C@H](NC(=O)C3CCCCC3)C(=O)O)cc2)n1 [Example 1.15, N-(cyclohexylcarbonyl)-O-{2-[6-(methylamino)pyridin-2-yl]ethyl}-L-tyrosine]
8.10 | CCCCC(CC)C(=O)N[C@@H](Cc1ccc(OCCc2cccc(NC)n2)cc1)C(=O)O (stereo partly drawn) [Example 1.12, N-(2-ethylhexanoyl)-O-{2-[6-(methylamino)pyridin-2-yl]ethyl}-L-tyrosine]
7.21 | CNc1cccc(CCOc2ccc(C[C@H](NC(=O)C3CCCN3C(C)C)C(=O)O)cc2)n1 (stereo partly drawn) [Example 4, N-[(1-isopropylpyrrolidin-2-yl)carbonyl]-O-{2-[6-(methylamino)pyridin-2-yl]ethyl}-L-tyrosine]
8.40 | CC(C)(C(=O)N[C@@H](Cc1ccc(OCCc2ccc3c(n2)NCCO3)cc1)C(=O)O)C(=O)N1CCCC1 [Example 5.2, O-[2-(3,4-dihydro-2H-pyrido[3,2-b][1,4]oxazin-6-yl)ethyl]-N-(2,2-dimethyl-3-oxo-3-pyrrolidin-1-ylpropanoyl)-L-tyrosine]
6.44 | CC#CC(=O)N[C@@H](Cc1ccc(OCCc2cccc(NC)n2)cc1)C(=O)O [Example 1.8, N-but-2-ynoyl-O-{2-[6-(methylamino)pyridin-2-yl]ethyl}-L-tyrosine]
6.28 | CNc1cccc(CCOc2ccc(C[C@H](NC(=O)Cc3cccnc3)C(=O)O)cc2)n1 [Example 1.26, O-{2-[6-(methylamino)pyridin-2-yl]ethyl}-N-(pyridin-3-ylacetyl)-L-tyrosine]
7.49 | CNc1cccc(CCOc2ccc(C[C@H](NC(=O)C3(CO)CCOCC3)C(=O)O)cc2)n1 [Example 1.20, N-{[4-(hydroxymethyl)tetrahydro-2H-pyran-4-yl]carbonyl}-O-{2-[6-(methylamino)pyridin-2-yl]ethyl}-L-tyrosine]
6.08 | CNc1cccc(CCOc2ccc(C[C@H](NC(=O)C(O)c3ccccc3)C(=O)O)cc2)n1 (stereo partly drawn) [Example 1.23, N-[hydroxy(phenyl)acetyl]-O-{2-[6-(methylamino)pyridin-2-yl]ethyl}-L-tyrosine]
9.00 | CC1(C(=O)N[C@@H](Cc2ccc(OCCc3ccc4c(n3)NCCC4)cc2)C(=O)O)CCCCC1 [Example 2.1, N-[(1-methylcyclohexyl)carbonyl]-O-[2-(5,6,7,8-tetrahydro-1,8-naphthyridin-2-yl)ethyl]-L-tyrosine]
6.97 | CNc1cccc(CCOc2ccc(C[C@H](NC(=O)C3CCCN3C)C(=O)O)cc2)n1 (stereo partly drawn) [Example 3, N-[(1-methylpyrrolidin-2-yl)carbonyl]-O-{2-[6-(methylamino)pyridin-2-yl]ethyl}-L-tyrosine]
8.40 | CNc1cccc(CCOc2ccc(C[C@H](NC(=O)C3(OC)CCOCC3)C(=O)O)cc2)n1 [Example 1.7, N-[(4-methoxytetrahydro-2H-pyran-4-yl)carbonyl]-O-{2-[6-(methylamino)pyridin-2-yl]ethyl}-L-tyrosine]
6.02 | CNc1cccc(CCOc2ccc(C[C@H](NC(=O)C3(O)CC3)C(=O)O)cc2)n1 [Example 1.6, N-[(1-hydroxycyclopropyl)carbonyl]-O-{2-[6-(methylamino)pyridin-2-yl]ethyl}-L-tyrosine]
7.66 | CNc1cccc(CCOc2ccc(C[C@H](NC(=O)[C@H](C)OC)C(=O)O)cc2)n1 [Example 1.3, N-[(2S)-2-methoxypropanoyl]-O-{2-[6-(methylamino)pyridin-2-yl]ethyl}-L-tyrosine]
